Data reported in patent US10538561B2, “Peptide for treating inflammatory diseases” (priority 2015, dated 2020).

How the values were obtained:
[1] = system: Human endothelial cells (EA.hy 926); test: Inhibition of FBS stimulated endothelial cell proliferation (MTT); type: cell-based
Procedure: Cell line: Human endothelial cells (EA.hy 926); test item: IS 181: treatment regimen: multiple additions (3)-72 hours; concentration range: 1 6 g/ml to 5000 6 g/ml (triplicate wells); sera condition: medium containing 10% FBS. […] The cells were then subjected to complete serum starvation. The cells were retreated with 10% FBS to stimulate cellular proliferation. […] Inhibition of FBS stimulated cell proliferation was measured using MTT assay. End point: percentage inhibition of FBS stimulated cell proliferation. Positive controls: anthralin; paclitaxel.

[2] = system: Human endothelial cells (EA.hy 926); test: Inhibition of endothelial cell migration (wound); type: cell-based; details: Homo sapiens, EA.hy 926; EA.hy926, 14 h, 10 nM; read-out: % Inhibition of migration with respect to respective 0 h control
Procedure: Cell line: Human endothelial cells (EA.hy 926); test item: IS 181; treatment regimen: single addition; concentration range: 0.1 μg/ml-1 mg/ml; sera condition: medium containing 10% FBS. […] The cells were then subjected to serum starved with medium containing 1% FBS for 24 hours. 24 hours post serum starvation, the wounds (straight line) were created in the middle of the well using a sterile 200 μl pipette tip. Cells were washed twice using DMEM followed by treatment with different concentrations of IS 181 in DMEM containing 10% FBS. Images of wound were taken at 0 h and 14 h at three points in single well and distance of wound closure was measured using Image J software. End point: image analysis of cell migration of different concentrations of IS 181 treated cells at 0 hour and after 14 hours of treatment. Percentage inhibition in cell migration of different concentrations of IS 181 treated cells were calculated after 14 h of treatment with respect to respective 0 hours (FIG. 13). […] (FIGS. 14A-14B).

[3] = system: IL-23; test: IL-23 secretion in LPS+IFN-γ stimulated THP-1; type: cell-based, Human; details: THP-1 + LPS + IFN-γ, 24 h
Procedure: (§1) Cell lines: Human monocytic cell line (THP-1); test item: IS181: treatment regimen; single addition—24 hours; concentration range: 10 μg/ml-5000 μg/ml. A) Identification of non-cytotoxic concentrations: THP-1 cells were treated with IS181 for 24 hours; effect on cell viability was assessed by MTT assay; concentrations leading to >75% cell viability were selected for IL-23 assay. […] Positive control: curcumin. […] Since supernatants corresponding to 5 concentrations were to be tested for […], we also tested 1 mg/ml.

[4] = system: VEGF; test: VEGF inhibition in keratinocytes (ELISA); type: cell-based, Human; details: HaCaT
Procedure: Cell lines: Human Keratinocytes (HaCaT); test item: IS181; treatment regimen: single addition—24 hours; concentration range: 0.1 μg/ml-100 μg/ml. […] Cells were serum-starved for another 24 hours (0% FBS). Cells were treated with IS181 for 24 hours. Supernatants were collected and stored at −20° C. till analysed. Levels of VEGF were analysed in supernatants by ELISA. Percent inhibition of VEGF secretion was calculated with reference to untreated levels. Positive control: curcumin; retinoic acid (at non-cytotoxic concentrations).

[5] = Cell viability of splenocytes (MTT); type: cell-based, mouse; details: mouse
Procedure: (§2) Cell lines: mouse splenocytes; test item: IS181; treatment regimen: single addition—24 hours; concentration range: 10 μg/ml-5000 μg/ml.A) Identification of non-cytotoxic concentrations: splenocytes were treated with IS181 for 24 hours. Effect on cell viability was assessed by MTT assay. Concentrations leading to >75% cell viability were selected for IL-17 assay. B) IL-17 assay: splenocytes were treated with IS181 in presence of ConA stimulation for 24 hours. Supernatants were collected and stored at −20° C. till analysed. Levels of IL-17 were analysed in supernatants by ELISA. Percent inhibition of IL-17 secretion was calculated with reference to ConA treated levels. Positive control: curcumin.

[6] = system: IL-17; test: IL-17 secretion in ConA stimulated splenocytes; type: cell-based, mouse; details: splenocytes + ConA, 24 h
Procedure: as §2

[7] = Cell viability of THP-1 (MTT); type: cell-based, Human; details: human
Procedure: as §1

[8] = system: Human Keratinocytes (HaCaT); test: Annexin-V assay; type: cell-based; details: 10 μM-50 μM
Procedure: Cell lines: Human Keratinocytes (HaCaT); test Item (TI): IS181; Treatment regimen: treated twice (once after 24 hours)-48 hours; concentration range: 100 6 g/ml-5000 6 g/ml. […] (c) cells were treated with IS181 for 24 hours; (d) after 24 hours, cells were again treated with IS181 for 24 hours; (e) after 48 hours of first treatment, cells were stained with Annexin-V reagent and acquired on flow cytometer; (f) fold increase in apoptotic cells (early and late apoptotic) and necrotic cells was calculated with respect to untreated control cells. Positive control: Curcumin. […] (FIG. 4)

[9] = system: Human melanoma (SK-MEL-28); test: Cell viability (MTT assay) in SK-MEL-28; type: cell-based
Procedure: (§3) Cell Lines/Cells: Human Keratinocytes (HaCaT); Human melanoma (SK-MEL-28); Human PBMCs. Test Item: IS181 Treatment regimen: Single addition—24 h, ^#Multiple additions (3)−72 h; Concentration range: 1 ng/ml-2 mg/ml (triplicate wells); Sera Condition: […] Method of estimation: MTT assay. […] Positive control: Triton-X-100, Doxorubicin Hydrochloride.

[10] = system: HaCaT (Human keratinocyte); test: LDH enzyme release assay; type: cell-based
Procedure: (§4) For testing Apoptosis the Human Keratinocytes (HaCaT) cell line has been employed. The growth conditions are DMEM containing 1% FBS. […] Test concentration range is IS181 is tested at the highest (Qualitative analysis) effective concentrations selected on the basis of Quantitative JC-1 assay. The method of estimation is Mitochondrial membrane depolarization by JC-1 assay (Early apoptosis), LDH enzyme release (Necrosis). Treatment regimen & time points are JC-1 assay—Single addition, 20 h; LDH assay—Single addition, 24 h; Positive control: Triton-X-100, Doxorubicin-hydrochloride
End-point: Percentage increase in LDH activity in treated cells with respect to untreated.

[11] = system: Human PBMCs; test: Cell viability (MTT assay) in PBMCs; type: cell-based
Procedure: as §3

[12] = system: HaCaT (Human keratinocyte) cell line; test: Mitochondrial membrane potential by JC-1 assay; type: cell-based
Procedure: as §4
Quantitative effect on Δψm (Red fluorescence/Green fluorescence) in HaCaT cells post 20 hours of treatment. […] Evaluation (Qualitative and quantitative) of differential JC-1 staining in treated cells after 20 h on incubation with the test peptides.

## CC(=O)O[C@H]1C(=O)[C@@]2(C)[C@H]([C@H](OC(=O)c3ccccc3)[C@]3(O)C[C@H](OC(=O)[C@H](O)[C@@H](NC(=O)c4ccccc4)c4ccccc4)C(C)=C1C3(C)C)[C@]1(OC(C)=O)CO[C@@H]1C[C@@H]2O [Paclitaxel]
[1]; EA.hy926, 10 nM
  Absorbance (Mean ± SD) at 540 nm: 0.36 ± 0.012
[1]; EA.hy926, 50 nM
  Absorbance (Mean ± SD) at 540 nm: 0.23 ± 0.008
[1]; EA.hy926, 100 nM
  Absorbance (Mean ± SD) at 540 nm: 0.19 ± 0.006
[1]; EA.hy926, 500 nM
  Absorbance (Mean ± SD) at 540 nm: 0.16 ± 0.003
[1]; EA.hy926, 1000 nM
  Absorbance (Mean ± SD) at 540 nm: 0.06 ± 0.001
[1]; Homo sapiens, EA.hy 926, EA.hy926, 10 nM, read-out: ¾ Inhibition of FBS stimulated cell growth
  inhibition at 0.01 µM: 27.6%
[1]; Homo sapiens, EA.hy 926, EA.hy926, 50 nM, read-out: ¾ Inhibition of FBS stimulated cell growth
  inhibition at 0.05 µM: 58.9%
[1]; Homo sapiens, EA.hy 926, EA.hy926, 100 nM, read-out: ¾ Inhibition of FBS stimulated cell growth
  inhibition at 0.1 µM: 62.7%
[1]; Homo sapiens, EA.hy 926, EA.hy926, 500 nM, read-out: ¾ Inhibition of FBS stimulated cell growth
  inhibition at 0.5 µM: 70.1%
[1]; Homo sapiens, EA.hy 926, EA.hy926, 1000 nM, read-out: ¾ Inhibition of FBS stimulated cell growth
  inhibition at 1 µM: 89.4%
[2]
  inhibition at 0.01 µM: 71%

## COc1cc(/C=C/C(=O)CC(=O)/C=C/c2ccc(O)c(OC)c2)ccc1O [Curcumin, reference compound]
[3]; Homo sapiens, 1 μM, read-out: % Inhibition of IL-23 wrt Control (LPS + IFN-γ)
  inhibition at 1 µM: 91.6%
[3]; Homo sapiens, 10 μM, read-out: % Inhibition of IL-23 wrt Control (LPS + IFN-γ)
  inhibition at 10 µM: 90.6%
[3]; 1 μM
  Conc. of IL-23: 7.1 pg/mL
[3]; 10 μM
  Conc. of IL-23: 7.9 pg/mL
[4]; 20 uM
  VEGF inhibition: did not result in any VEGF inhibition
[4]; 24 h, 1 μM
  Conc. of VEGF: 3059.1 pg/mL
[4]; Homo sapiens, 24 h, 1 μM, read-out: % Inhibition of VEGF wrt untreated (basal) levels
  inhibition at 1 µM: 14.9%
[5]
  viability at 24 h: > 75%
  viability at 24 h, 1 µM: 97.5%
  viability at 24 h, 10 µM: 82%
  viability at 24 h, 20 µM: 40.4%
[6]; Mus musculus, Splenocyte, 1 μM, read-out: % Inhibition of IL-17 wrt Control (ConA)
  inhibition at 1 µM: 40.5%
[6]; Mus musculus, Splenocyte, 10 μM, read-out: % Inhibition of IL-17 wrt Control (ConA)
  inhibition at 10 µM: 42.5%
[6]; 1 μM
  Conc. of IL-17: 27.7 pg/mL
[6]; 10 μM
  Conc. of IL-17: 26.7 pg/mL
[7]
  viability at 24 h, 1 µM: 94.7%
  viability at 24 h, 10 µM: 103%
  viability at 24 h, 20 µM: 107%
[8]
  increase in early apoptotic cells: 12.8-152.5 fold
  increase in late apoptotic cells: 2.4-138.4 fold

## Triton X-100 [reference compound]
[9]
  cytotoxicity: > 90%
[10]; 0.01%
  % Increase with respect to untreated (LDH): −30.27%
  LDH Activity (mU/ml): 44.11 mU/ml
[10]; 0.1%
  % Increase with respect to untreated (LDH): ***95.84%
  LDH Activity (mU/ml): 123.88 mU/ml
[11]
  cytotoxicity: 70% to 77%
[12]; 0.01%
  Green fluorescence intensity (RFU): 20.5 ± 17.68 RFU
  Red fluorescence intensity (RFU): 33.25 ± 32.17 RFU
  Red fluorescence intensity/Green fluorescence intensity: *1.62
[12]; 0.1%
  Green fluorescence intensity (RFU): 22.33 RFU
  Red fluorescence intensity (RFU): 16.33 RFU
  Red fluorescence intensity/Green fluorescence intensity: *0.73
